This note sets out measurements from EP0365210A1, “Hydroxamic acid derivatives” (KYOWA HAKKO KOGYO CO., LTD., priority 1988, dated 1990).

pIC50: −log10 of the molar value.

In general, pIC50 refers to the negative decadic logarithm of the IC50, by convention in mol/L. A lower pIC50 goes with a large IC50.

This experiment has as its target T1, leucocyte 5-lipoxygenase (Rattus norvegicus, UniProt P12527).
T1 construct: rat basophilic leukemia cells (RBL-1, ATCC No. CRL 1378) were used as the source of 5-lipoxygenase; host or cells: RBL-1 rat basophilic leukemia cells
T1 sequence (P12527 1-673): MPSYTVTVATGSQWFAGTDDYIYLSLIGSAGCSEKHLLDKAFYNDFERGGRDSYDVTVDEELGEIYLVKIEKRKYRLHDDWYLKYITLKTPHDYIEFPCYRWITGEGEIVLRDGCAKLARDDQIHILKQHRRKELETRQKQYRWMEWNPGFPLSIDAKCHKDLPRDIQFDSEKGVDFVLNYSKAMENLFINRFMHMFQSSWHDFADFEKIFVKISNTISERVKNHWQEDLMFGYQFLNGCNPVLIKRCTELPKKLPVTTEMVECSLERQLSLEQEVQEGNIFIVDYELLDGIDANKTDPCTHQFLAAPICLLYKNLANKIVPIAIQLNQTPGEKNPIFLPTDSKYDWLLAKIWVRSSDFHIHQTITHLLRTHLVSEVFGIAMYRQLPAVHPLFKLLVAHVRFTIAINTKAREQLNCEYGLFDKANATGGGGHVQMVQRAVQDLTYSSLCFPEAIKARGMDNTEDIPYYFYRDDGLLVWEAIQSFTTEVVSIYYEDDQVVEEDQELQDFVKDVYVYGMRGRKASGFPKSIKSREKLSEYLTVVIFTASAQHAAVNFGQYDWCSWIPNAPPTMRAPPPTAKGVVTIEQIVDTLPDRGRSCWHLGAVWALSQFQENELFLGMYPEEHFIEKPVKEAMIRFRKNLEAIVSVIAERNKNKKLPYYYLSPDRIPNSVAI
Nature of the experiment: Inhibitory activity against leucocyte 5-lipoxygenase (5-HETE formation by HPLC, RBL-1 cells as enzyme source). It is filed as biochemical. The conditions noted are these: rat basophilic leukemia cells (RBL-1) as source of 5-lipoxygenase; arachidonic acid substrate; 37°C; pH 7.4. The procedure: a) Method for determining the inhibitory activity against leucocyte 5-lipoxygenase:
Lipoxygenase activity was determined by a modification of the method of B.A. Jakschik et al. [Biochem. Biophys. Res. Commun., 95, 103 (1980)]. That is, rat basophilic leukemia cells (RBL-1, ATCC No. CRL 1378) were used as the source of 5-lipoxygenase. The cells were contacted with a test compound in 60 µl of 0.17 M Trishydrochloride buffer (pH 7.4) containing […] calcium chloride, 3.3 mM adenosine triphosphate and 1 mM glutathione at 37°C for 5 minutes. Then,-50 µl of 60 µM arachidonic acid was added to the reaction mixture and the mixture was allowed to stand at 37° C for 5 minutes. To the mixture were added 200 µl of methanol and 13-hydroxylinoleic acid as the internal standard, followed by thorough shaking. The mixture was allowed to stand at -20 C for 30 minutes and then centrifuged at 12000 r.p.m. for 10 minutes. After the supernatant was evaporated to dryness in a stream of nitrogen, 200 µl of 75% aqueous methanol was added to the residue. The resulting solution (100 µl) was subjected to high performance liquid chromatography to quantitatively determine 5-HETE (5-hydroxyeicosatetraenoic acid). The absorption at 234 nm was measured with a UV absorption monitor and the amount of 5-HETE produced was determined from the peak area corrected by the peak of the internal standard. The test was carried out using the test compound at various concentrations and the concentration that inhibits 50% enzyme activity was determined as the inhibitory activity.
Molecule `CCCCCCCCCCCN(O)C(C)=O` [Compound 10] gave a negative logarithm of the IC50 (pIC50) of 7.47.

In the case of `CCCCCCCCCCCC(=O)N(O)CCCN1C(=O)CCC1=O` [Compound 3], the pIC50 is 7.70.

Turning to `CCCCCCCCCCCN(O)C(=O)c1ccccc1` [Compound 12], the pIC50 is 6.52.

Molecule `CCCCCCCCCCCN(O)C(=O)CCC(=O)OC` [Compound 7] showed a negative-log IC50 (pIC50) of 7.42.

With `CCCCCCCCCCCN(O)C(=O)CCCCCN1C(=O)CCC1=O` [Compound 2], the pIC50 is 7.70.

Take `CCCCCCCCCCCC(=O)N(O)CCCCCN1C(=O)c2ccccc2C1=O` [Compound 4]: the pIC50 was 7.40.

Consider `CCCCCCCCCCCC(=O)N(O)CCCCCN1CCCC1=O` [Compound 6], for which the pIC50 was 7.60.

With `CCCCCCCCCCCC(=O)N(O)CCCCCN1C(=O)CCCC1=O` [Compound 5], the negative-log IC50 (pIC50) was 7.44.

In the case of `CCCCCCCCCCCN(O)C(=O)CCC` [Compound 11], the negative-log IC50 (pIC50) was 7.36.

`CCCCCCCCCCCC(=O)N(O)CCCCCCCN1C(=O)CCC1=O` [Compound 1]: the pIC50 was 7.70.
